Patent publication US7091198B1, “2,5-disubstituted pyrimidine derivatives” (Bayer HealthCare AG, priority 2002, dated 2006)

system: cGMP in primary cortical neurons; test: Increase of cGMP in primary cortical neurons; format: cell-based; conditions: Primary cortical neuron, 20 min; rat embryonic primary cortical neurons; 20 min incubation at 37° C. with IBMX; triplicate determination; more than 2-fold increase compared with the control; read-out: concentration leading to a statistically significant increase in cGMP
Protocol: Increase of cGMP in Primary Cortical Neurons
Rat embryos (embryonic day 17–19) are decapitated, and the cerebrum is removed and incubated with 5 ml of papain solution and 250 μl of DNAse (papain kit from Cell-System) at 37° C. for 30 min, homogenized using a Pasteur pipette and centrifuged at 1200 rpm for 5 min. The supernatant is removed, the cell pellet resuspended (in 2.7 ml of EBSS [Earl's balanced salt solution], 300 μl of ovomucoid/albumin (conc.) solution, 150 μl of DNAse; papain kit from Cell-System), layered over 5 ml of ovomucoid/albumin solution and centrifuged at 700 rpm for 6 min. The supernatant is removed, the cells are resuspended in cultivation medium (Gibco neurobasal medium, B27 Supplement 50×1 ml/100 ml, 2 mM L-glutamine), counted (approx. 150 000 cells/well) and plated out on poly-D-lysine-coated 96-well plates (Costar) with 200 μl/well. After 6–7 days at 37° C. (5% CO2), the neurons are freed of culture medium and washed once with assay buffer (154 mM NaCl, 5.6 mM KCl, 2.3 mM CaCl2.2H2O, 1 mM MgCl2, 5.6 mM glucose, 8.6 mM HEPES (4-(2-hydroxyethyl)piperazine-1-ethanesulfonic acid), pH=7.4). 100 μl/well test substance are dissolved in assay buffer and then 100 μl/well IBMX (3-isobutyl-1-methylxanthine; dissolved in 50 mM ethanol, diluted with assay buffer to a final concentration of 100 μM) are added. After incubation at 37° C. for 20 min, the assay buffer is replaced by 200 μl/well of lysis buffer (cGMP EIA RPN 226 from Amersham Pharmacia Biotech), and the cGMP content of the lystates is determined using an EIA assay kit.
The concentrations indicated in Table 1 lead to a statistically significant increase in cGMP (triplicate determination; more than 2-fold increase compared with the control)

SMILES | minimal effective concentration [µM]
O=C1CCN(c2cnc(-c3nn(Cc4ccccc4F)c4ncccc34)nc2)C1 [Example 38, 1-{2-[1-(2-Fluorobenzyl)-1H-pyrazol[3,4-b]pyridin-3-yl]-5-pyrimidinyl}-3-pyrrolidinone] | 0.27
Fc1ccccc1Cn1nc(-c2ncc(-c3cn[nH]c3C3CC3)cn2)c2cccnc21 [Example 36, 3-[5-(5-Cyclopropyl-1H-pyrazol-4-yl)-2-pyrimidinyl]-1-(2-fluorobenzyl)-1 H-pyrazolo[3,4-b]pyridine] | 0.27
Fc1ccccc1Cn1nc(-c2ncc(N3CC4CNCC(C3)O4)cn2)c2cccnc21 [Example 10] | 1.2
CO[C@H]1CCN(c2cnc(-c3nn(Cc4ccccc4F)c4ncccc34)nc2)C1 [Example 20, 1-(2-Fluorobenzyl)-3-{5-[(3S)-3-methoxy-1-pyrrolidinyl]-2-pyrimidinyl}-1 H-pyrazolo[3,4-b]pyridine] | 0.27
O=C1CCCCC1c1cnc(-c2nn(Cc3ccccc3F)c3ncccc23)nc1 (centres unmarked) [Example 13, 2-{2-[1-(2-Fluorobenzyl)-1H-pyrazol[3,4-b]pyridin-3-yl]-5-pyrimidinyl}-cyclohexanone] | 0.27
COc1ccccc1-c1cnc(-c2nn(Cc3ccccc3F)c3ncccc23)nc1 [Example 27] | 0.9
CO[C@H]1CN(c2cnc(-c3nn(Cc4ccccc4F)c4ncccc34)nc2)C[C@@H]1OC [Example 6] | 0.27
Fc1ccccc1Cn1nc(-c2ncc(N3CC4CCC(C3)O4)cn2)c2cccnc21 [Example 19, 1-(2-Fluorobenzyl)-3-[5-(8-oxa-3-azabicyclo[3.2.1]oct-3-yl)-2-pyrimidinyl]-1H-pyrazolo[3,4-b]pyridine] | 0.27
